Results taken from ChEMBL document CHEMBL5653615 (J Biol Chem, 2013).

Experiments:
[1] = biological target: MAP kinase-interacting serine/threonine-protein kinase 2 (Homo sapiens) (UniProt Q9HBH9); assay: Inhibition of human MNK2 at 18.6 nM by HotSpot assay relative to control
[2] = biological target: T1, Mitogen-activated protein kinase kinase kinase kinase 2 (Homo sapiens) (UniProt Q12851); assay: Inhibition of human GCK at 18.6 nM by HotSpot assay relative to control
T1 sequence (whole entry): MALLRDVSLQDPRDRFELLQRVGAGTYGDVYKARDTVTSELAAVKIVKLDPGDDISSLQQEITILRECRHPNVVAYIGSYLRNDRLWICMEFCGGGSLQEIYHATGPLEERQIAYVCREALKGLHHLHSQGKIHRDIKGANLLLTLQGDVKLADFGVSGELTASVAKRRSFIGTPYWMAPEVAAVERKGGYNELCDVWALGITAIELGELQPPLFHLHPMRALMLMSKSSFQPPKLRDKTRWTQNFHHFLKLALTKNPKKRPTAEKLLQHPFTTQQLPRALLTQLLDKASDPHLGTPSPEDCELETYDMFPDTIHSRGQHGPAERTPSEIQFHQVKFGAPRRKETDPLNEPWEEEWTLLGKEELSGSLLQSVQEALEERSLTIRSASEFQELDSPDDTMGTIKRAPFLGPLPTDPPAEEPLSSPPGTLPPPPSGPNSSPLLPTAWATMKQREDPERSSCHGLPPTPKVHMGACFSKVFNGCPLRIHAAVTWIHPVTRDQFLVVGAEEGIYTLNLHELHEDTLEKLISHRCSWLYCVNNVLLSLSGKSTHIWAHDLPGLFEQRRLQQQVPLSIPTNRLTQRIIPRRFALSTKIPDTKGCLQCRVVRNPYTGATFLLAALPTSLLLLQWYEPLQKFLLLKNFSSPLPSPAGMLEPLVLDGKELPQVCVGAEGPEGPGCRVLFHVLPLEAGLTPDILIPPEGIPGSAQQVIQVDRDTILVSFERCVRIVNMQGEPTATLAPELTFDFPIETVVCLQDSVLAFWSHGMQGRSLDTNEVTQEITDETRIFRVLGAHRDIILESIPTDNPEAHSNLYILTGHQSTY

[3] = biological target: RAC-gamma serine/threonine-protein kinase (Homo sapiens) (UniProt Q9Y243); assay: Inhibition of human AKT3 at 18.6 nM by HotSpot assay relative to control
[4] = biological target: Hepatocyte growth factor receptor (Homo sapiens) (UniProt P08581); assay: Inhibition of human c-MET at 18.6 nM by HotSpot assay relative to control
[5] = biological target: T2, Cytoplasmic tyrosine-protein kinase BMX (Homo sapiens) (UniProt P51813); assay: Inhibition of human BMX at 18.6 nM by HotSpot assay relative to control
T2 sequence (whole entry): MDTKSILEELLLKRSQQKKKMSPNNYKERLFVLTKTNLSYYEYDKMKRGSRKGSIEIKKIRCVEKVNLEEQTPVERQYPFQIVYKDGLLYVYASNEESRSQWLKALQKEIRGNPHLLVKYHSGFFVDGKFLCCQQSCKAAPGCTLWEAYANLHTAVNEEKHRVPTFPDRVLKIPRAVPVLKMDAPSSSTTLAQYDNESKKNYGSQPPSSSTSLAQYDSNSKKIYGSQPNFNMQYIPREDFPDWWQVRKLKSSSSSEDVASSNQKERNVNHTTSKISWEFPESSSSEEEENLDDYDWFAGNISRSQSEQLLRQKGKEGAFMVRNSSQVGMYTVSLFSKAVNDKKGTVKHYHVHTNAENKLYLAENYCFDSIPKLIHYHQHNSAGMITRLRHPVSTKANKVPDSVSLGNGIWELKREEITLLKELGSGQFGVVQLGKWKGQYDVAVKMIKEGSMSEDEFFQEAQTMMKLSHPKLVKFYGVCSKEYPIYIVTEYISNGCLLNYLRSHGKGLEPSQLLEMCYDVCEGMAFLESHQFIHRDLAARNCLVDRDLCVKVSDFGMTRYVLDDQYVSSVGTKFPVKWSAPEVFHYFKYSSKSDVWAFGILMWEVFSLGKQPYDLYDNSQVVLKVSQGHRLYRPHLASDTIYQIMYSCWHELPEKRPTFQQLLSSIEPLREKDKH

[6] = biological target: PAS domain-containing serine/threonine-protein kinase (Homo sapiens) (UniProt Q96RG2); assay: Inhibition of human PASK at 1.82 nM by HotSpot assay relative to control
[7] = biological target: T3, cGMP-dependent protein kinase 2 (Homo sapiens) (UniProt Q13237); assay: Inhibition of human PRKG2 at 1.82 nM by HotSpot assay relative to control
T3 sequence (whole entry): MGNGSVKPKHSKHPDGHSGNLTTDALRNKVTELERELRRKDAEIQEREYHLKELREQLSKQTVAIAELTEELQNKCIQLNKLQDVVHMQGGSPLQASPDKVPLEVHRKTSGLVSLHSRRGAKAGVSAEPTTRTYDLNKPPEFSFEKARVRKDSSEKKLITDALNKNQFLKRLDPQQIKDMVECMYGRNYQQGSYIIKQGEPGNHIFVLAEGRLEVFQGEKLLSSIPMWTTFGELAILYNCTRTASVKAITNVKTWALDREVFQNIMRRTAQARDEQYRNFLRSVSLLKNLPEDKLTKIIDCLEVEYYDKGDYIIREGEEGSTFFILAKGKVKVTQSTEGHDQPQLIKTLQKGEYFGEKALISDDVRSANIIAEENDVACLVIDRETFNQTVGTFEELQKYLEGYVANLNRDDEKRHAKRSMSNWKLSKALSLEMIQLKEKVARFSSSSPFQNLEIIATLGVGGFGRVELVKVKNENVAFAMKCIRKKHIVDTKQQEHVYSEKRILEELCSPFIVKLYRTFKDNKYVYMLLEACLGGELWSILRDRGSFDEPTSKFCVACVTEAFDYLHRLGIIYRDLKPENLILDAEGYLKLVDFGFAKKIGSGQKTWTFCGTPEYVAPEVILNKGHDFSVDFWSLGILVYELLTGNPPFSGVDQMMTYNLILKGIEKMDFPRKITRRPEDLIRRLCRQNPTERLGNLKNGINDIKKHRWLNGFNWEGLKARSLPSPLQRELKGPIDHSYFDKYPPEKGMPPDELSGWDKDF

[8] = biological target: Mitogen-activated protein kinase 14 (Homo sapiens) (UniProt Q16539); assay: Inhibition of human MAPK14 at 1.82 nM by HotSpot assay relative to control
[9] = biological target: Receptor tyrosine-protein kinase erbB-4 (Homo sapiens) (UniProt Q15303); assay: Inhibition of human ERBB4 at 1.82 nM by HotSpot assay relative to control
[10] = biological target: Serine/threonine-protein kinase 26 (Homo sapiens) (UniProt Q9P289); assay: Inhibition of human MST4 at 1.82 nM by HotSpot assay relative to control

MAP kinase-interacting serine/threonine-protein kinase 2 (Homo sapiens), sequence (Q9HBH9 whole entry, looked up): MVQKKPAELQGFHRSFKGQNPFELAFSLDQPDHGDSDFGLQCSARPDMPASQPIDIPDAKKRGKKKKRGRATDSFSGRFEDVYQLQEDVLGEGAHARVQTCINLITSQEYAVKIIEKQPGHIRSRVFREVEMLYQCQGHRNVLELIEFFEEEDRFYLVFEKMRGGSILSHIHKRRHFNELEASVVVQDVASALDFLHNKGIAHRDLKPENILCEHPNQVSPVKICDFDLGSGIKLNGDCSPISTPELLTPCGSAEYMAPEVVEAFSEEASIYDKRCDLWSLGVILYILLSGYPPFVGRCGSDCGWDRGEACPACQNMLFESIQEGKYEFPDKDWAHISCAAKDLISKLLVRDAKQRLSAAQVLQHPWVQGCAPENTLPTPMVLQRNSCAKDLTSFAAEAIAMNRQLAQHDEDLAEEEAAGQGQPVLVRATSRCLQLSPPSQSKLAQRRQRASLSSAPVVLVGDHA
Receptor tyrosine-protein kinase erbB-4 (Homo sapiens), sequence (Q15303 whole entry): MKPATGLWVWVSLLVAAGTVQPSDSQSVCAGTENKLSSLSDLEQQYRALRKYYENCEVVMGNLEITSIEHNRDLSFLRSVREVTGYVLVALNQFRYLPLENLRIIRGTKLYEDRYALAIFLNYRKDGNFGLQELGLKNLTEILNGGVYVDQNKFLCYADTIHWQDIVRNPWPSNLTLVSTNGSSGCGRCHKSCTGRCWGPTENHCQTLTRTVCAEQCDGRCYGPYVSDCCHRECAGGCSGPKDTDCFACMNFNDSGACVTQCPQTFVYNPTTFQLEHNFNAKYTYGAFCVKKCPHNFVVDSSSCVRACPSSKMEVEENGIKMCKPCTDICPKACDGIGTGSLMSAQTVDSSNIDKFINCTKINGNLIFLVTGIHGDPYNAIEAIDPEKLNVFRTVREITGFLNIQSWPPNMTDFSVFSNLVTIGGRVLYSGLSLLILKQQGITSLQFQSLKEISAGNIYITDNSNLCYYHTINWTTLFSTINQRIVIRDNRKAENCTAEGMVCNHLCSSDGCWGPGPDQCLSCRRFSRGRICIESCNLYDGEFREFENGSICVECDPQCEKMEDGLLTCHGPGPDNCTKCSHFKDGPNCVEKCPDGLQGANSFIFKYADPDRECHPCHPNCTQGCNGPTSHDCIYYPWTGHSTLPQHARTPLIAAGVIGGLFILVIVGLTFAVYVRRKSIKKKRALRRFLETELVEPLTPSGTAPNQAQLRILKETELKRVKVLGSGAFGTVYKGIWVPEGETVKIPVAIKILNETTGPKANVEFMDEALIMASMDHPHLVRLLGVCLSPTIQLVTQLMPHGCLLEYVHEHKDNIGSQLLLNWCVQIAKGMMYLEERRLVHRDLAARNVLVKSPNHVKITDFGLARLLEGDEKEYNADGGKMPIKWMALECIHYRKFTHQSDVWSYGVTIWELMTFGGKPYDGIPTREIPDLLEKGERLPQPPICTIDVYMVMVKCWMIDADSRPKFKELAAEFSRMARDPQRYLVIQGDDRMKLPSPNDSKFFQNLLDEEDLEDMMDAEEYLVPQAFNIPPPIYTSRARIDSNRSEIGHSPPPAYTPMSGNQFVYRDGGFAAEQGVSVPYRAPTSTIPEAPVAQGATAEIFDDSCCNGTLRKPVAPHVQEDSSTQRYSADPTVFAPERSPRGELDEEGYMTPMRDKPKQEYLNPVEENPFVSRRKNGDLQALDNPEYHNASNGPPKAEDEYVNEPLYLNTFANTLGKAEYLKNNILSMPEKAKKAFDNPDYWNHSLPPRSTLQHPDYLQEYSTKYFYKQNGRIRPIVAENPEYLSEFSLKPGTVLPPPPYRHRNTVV
PAS domain-containing serine/threonine-protein kinase (Homo sapiens), sequence (Q96RG2 whole entry, the tested form may be a part): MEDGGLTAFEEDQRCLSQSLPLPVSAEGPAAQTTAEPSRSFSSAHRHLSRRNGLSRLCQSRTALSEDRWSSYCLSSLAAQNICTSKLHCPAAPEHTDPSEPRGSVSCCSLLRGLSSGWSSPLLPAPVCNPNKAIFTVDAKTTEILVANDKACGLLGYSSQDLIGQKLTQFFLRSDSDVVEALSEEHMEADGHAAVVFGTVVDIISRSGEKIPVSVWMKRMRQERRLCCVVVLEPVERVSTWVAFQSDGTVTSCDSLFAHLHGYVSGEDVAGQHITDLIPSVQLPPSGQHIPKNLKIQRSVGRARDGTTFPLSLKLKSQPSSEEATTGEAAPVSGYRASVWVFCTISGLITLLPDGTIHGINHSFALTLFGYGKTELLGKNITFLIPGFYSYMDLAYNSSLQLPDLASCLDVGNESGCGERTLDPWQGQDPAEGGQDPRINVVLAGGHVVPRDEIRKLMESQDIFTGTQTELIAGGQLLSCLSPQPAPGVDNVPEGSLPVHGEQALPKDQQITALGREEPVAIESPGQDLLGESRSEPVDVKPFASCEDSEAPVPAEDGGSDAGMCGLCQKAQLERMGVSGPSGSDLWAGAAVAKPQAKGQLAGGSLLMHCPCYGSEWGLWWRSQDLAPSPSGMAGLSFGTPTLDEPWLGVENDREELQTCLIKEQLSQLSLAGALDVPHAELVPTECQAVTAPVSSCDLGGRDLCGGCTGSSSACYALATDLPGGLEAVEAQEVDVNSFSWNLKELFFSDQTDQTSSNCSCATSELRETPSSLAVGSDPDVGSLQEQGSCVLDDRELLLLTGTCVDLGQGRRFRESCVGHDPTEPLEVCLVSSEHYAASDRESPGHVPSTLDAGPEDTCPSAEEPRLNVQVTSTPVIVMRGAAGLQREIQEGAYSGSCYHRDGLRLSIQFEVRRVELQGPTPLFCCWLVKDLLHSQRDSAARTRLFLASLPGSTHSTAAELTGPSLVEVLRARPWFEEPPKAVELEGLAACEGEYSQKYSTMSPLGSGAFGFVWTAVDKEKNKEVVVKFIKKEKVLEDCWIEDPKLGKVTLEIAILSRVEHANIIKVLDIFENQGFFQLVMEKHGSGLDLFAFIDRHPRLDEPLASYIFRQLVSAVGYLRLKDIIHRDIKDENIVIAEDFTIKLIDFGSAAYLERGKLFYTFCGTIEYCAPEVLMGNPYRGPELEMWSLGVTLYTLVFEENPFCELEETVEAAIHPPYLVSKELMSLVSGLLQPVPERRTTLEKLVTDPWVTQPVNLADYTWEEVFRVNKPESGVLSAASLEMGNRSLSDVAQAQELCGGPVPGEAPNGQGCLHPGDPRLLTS
Mitogen-activated protein kinase 14 (Homo sapiens), sequence (Q16539 whole entry): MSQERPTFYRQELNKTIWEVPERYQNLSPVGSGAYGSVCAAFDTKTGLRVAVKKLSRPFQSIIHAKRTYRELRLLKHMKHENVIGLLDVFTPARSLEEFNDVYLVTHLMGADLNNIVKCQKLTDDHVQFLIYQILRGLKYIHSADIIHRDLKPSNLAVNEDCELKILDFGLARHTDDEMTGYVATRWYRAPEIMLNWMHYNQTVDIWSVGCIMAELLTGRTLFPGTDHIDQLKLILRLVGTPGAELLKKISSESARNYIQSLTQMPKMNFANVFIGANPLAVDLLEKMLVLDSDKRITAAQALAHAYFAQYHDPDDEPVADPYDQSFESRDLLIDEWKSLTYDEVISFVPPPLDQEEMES
Hepatocyte growth factor receptor (Homo sapiens), sequence (P08581 whole entry): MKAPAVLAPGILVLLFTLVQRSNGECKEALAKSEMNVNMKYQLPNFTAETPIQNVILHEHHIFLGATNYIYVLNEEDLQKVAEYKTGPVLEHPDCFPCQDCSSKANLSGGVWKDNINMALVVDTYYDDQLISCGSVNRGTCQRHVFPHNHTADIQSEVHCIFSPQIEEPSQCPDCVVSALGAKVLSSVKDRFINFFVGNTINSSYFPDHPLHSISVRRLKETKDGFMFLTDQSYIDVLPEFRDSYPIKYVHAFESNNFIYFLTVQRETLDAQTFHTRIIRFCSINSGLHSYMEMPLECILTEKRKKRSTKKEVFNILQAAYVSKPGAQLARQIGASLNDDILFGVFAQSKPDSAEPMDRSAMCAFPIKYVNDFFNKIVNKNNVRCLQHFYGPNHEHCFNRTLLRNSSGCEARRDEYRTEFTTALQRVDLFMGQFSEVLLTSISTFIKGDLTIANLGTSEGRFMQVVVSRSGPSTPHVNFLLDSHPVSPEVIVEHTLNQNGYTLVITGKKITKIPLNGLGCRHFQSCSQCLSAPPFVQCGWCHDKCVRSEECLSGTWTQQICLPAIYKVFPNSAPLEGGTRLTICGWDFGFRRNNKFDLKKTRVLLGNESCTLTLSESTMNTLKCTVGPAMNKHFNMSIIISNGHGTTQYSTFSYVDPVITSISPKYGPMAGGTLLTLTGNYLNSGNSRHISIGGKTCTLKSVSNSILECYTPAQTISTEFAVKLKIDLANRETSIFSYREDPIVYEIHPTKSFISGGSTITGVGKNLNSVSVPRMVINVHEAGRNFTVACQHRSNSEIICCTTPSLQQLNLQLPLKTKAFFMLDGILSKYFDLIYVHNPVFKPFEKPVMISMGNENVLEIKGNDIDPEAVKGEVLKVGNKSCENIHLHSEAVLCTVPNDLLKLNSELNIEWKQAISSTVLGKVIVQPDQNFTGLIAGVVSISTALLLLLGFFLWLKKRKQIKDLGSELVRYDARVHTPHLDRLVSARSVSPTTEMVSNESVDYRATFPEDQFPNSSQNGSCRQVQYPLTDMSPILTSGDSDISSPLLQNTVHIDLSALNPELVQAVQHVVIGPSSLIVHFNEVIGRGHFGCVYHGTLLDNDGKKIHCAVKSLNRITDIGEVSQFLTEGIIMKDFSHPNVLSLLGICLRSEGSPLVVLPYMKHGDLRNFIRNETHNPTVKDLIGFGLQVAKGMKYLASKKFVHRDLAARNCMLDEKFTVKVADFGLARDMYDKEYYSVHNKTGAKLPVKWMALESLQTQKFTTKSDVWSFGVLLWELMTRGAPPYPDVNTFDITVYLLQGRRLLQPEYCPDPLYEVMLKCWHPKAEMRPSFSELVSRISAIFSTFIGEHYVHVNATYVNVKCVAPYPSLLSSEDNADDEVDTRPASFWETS

| SMILES | inhibition [1] | inhibition [2] | inhibition [3] | inhibition [4] | inhibition [5] | inhibition [6] | inhibition [7] | inhibition [8] | inhibition [9] | inhibition [10] |
| --- | --- | --- | --- | --- | --- | --- | --- | --- | --- | --- |
| C[C@]1(O)C[C@@H](c2nc(-c3ccc4ccc(-c5ccccc5)nc4c3)c3c(N)nccn32)C1 | -3.65% | 1.94% | -1.08% | -4.38% | -2.96% |  |  |  |  |  |
| C[C@@]1(C(=O)Nc2ccc(F)nc2)CCCN1c1nc(Nc2cc(C3CC3)n[nH]2)c2cccn2n1 |  |  |  |  |  | -2.46% | -0.02% | -2.94% | 3.49% | -1.09% |
